The compounds below were run on Utrophin A promoter linked to a luciferase reporter gene (assay: Luciferase reporter assay (murine H2K cells)). Details: luciferase reporter assay in murine H2K cells; classified relative to control.
Format: cell-based
How it was run: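 Compound at 10 μM final was applied for 48 hrs to plated H2K mdx myoblasts (33° C, 10% CO2, interferon-containing medium) bearing a luciferase gene under the utrophin A promoter. Luminescence from lysed cells served as read-out.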

Row | SMILES | Activity
1 | O=C(Nc1ccc(-c2nc3ccccc3[nH]2)cc1)c1ccc2c(c1)OCO2 [Example 540] | + (Up to 200% relative to control)
2 | Cn1c(-c2ccc(Cl)cc2)nc2ccccc21 [Example 541] | ++ (Between 201% and 300% relative to control)
3 | COc1ccc(-c2nc3ccccc3s2)cc1NC(C)=O [Example 542] | ++ (Between 201% and 300% relative to control)
4 | CSc1ccc(-c2nc3ccccc3[nH]2)cc1 [Example 543] | ++ (Between 201% and 300% relative to control)
5 | Nc1ccc(-c2nc3ccc(N)cc3o2)cc1 [Example 544] | ++ (Between 201% and 300% relative to control)
6 | Cc1ccc2nc(-c3ccc(NC(=O)c4ccccc4C(=O)O)cc3)sc2c1 [Example 545] | + (Up to 200% relative to control)
7 | C(=C\c1nc2ccccc2[nH]1)/c1ccccc1 [Example 547] | +++ (Between 301% and 400% relative to control)
8 | Cc1ccc(C)c(OCc2nc3ccccc3[nH]2)c1 [Example 548] | + (Up to 200% relative to control)
9 | CCOc1ccc(-c2nc3cc(N)ccc3o2)cc1 [Example 549] | + (Up to 200% relative to control)
10 | Nc1ccc(O)c(-c2nc3cc(N)ccc3s2)c1 [Example 550] | + (Up to 200% relative to control)
11 | CCc1ccc2oc(-c3cc(N)ccc3O)nc2c1 [Example 551] | + (Up to 200% relative to control)
12 | c1ccc(NNc2nc3ccccc3s2)cc1 [Example 552] | + (Up to 200% relative to control)
13 | CCc1ccc2oc(-c3ccc(N)cc3)nc2c1 [Example 553] | ++++ (Above 401% relative to control)
14 | Cc1ccc2[nH]c(-c3ccccc3N)nc2c1 [Example 554] | +++ (Between 301% and 400% relative to control)
15 | CCOc1ccc2nc(NC(=O)c3ccccc3)sc2c1 [Example 555] | + (Up to 200% relative to control)
16 | CC(=O)Nc1ccc(-c2nc3cc(Cl)c(NC(C)=O)cc3[nH]2)cc1 [Example 556] | + (Up to 200% relative to control)
17 | Nc1ccc(Oc2ccc(-c3nc4ccccc4[nH]3)cc2)cc1 [Example 557] | ++++ (Above 401% relative to control)
18 | c1ccc(-c2ccc(-c3nc4ccccc4[nH]3)cc2)cc1 [Example 558] | + (Up to 200% relative to control)
19 | Cc1cc2nc(-c3cc(N)ccc3O)oc2cc1C [Example 559] | +++ (Between 301% and 400% relative to control)
20 | Nc1ccc2[nH]c(-c3ccc(Cl)cc3)nc2c1 [Example 560] | +++ (Between 301% and 400% relative to control)
21 | c1csc(-c2nc3cc4ccccc4cc3[nH]2)c1 [Example 561] | +++ (Between 301% and 400% relative to control)
22 | O=C(Nc1ccc(-c2nc3ccccc3[nH]2)cc1)c1ccco1 [Example 562] | +++ (Between 301% and 400% relative to control)
23 | CCSc1nc2ccc(N)cc2s1 [Example 563] | ++ (Between 201% and 300% relative to control)
24 | Cc1ccc2nc(-c3ccc(NC(=O)C(C)C)cc3)oc2c1 [Example 564] | + (Up to 200% relative to control)
25 | CC(C)c1ccc2oc(-c3ccc(N)cc3O)nc2c1 [Example 565] | +++ (Between 301% and 400% relative to control)
26 | Cc1c(N)cccc1-c1nc2cc(Cl)ccc2o1 [Example 566] | + (Up to 200% relative to control)

Row | SMILES | Activity
27 | Cc1ccc(C(=O)Nc2nc3ccccc3s2)c(Cl)c1 [Example 567] | + (Up to 200% relative to control)
28 | Cc1ccc(-c2nc3ccccc3[nH]2)cc1NC(=O)C(F)(F)F [Example 568] | +++ (Between 301% and 400% relative to control)
29 | Nc1ccc2oc(-c3ccccc3F)nc2c1 [Example 569] | +++ (Between 301% and 400% relative to control)
30 | CCCCc1nc2cc(S(=O)(=O)CC)ccc2o1 [Example 570] | + (Up to 200% relative to control)
31 | CCCc1nc2cc(S(=O)(=O)CC)ccc2o1 [Example 571] | + (Up to 200% relative to control)
32 | CCc1nc2cc(S(=O)(=O)CC)ccc2o1 [Example 572] | + (Up to 200% relative to control)
33 | CCS(=O)(=O)c1ccc2ocnc2c1 [Example 573] | + (Up to 200% relative to control)
34 | CCS(=O)(=O)c1ccc2oc(S)nc2c1 [Example 574] | + (Up to 200% relative to control)
35 | CC(=O)Nc1cccc(-c2ccc3oc(-c4ccc(Cl)cc4)nc3c2)c1 [Example 575] | ++++ (Above 401% relative to control)
36 | CCNC(=O)Nc1ccc2[nH]c(C(C)(C)C)cc2c1 [Example 576] | + (Up to 200% relative to control)
37 | Nc1ccc2oc(-c3cccc4ccccc34)nc2c1 [Example 577] | + (Up to 200% relative to control)
38 | CCCS(=O)(=O)c1ccc2oc(-c3ccc(Cl)cc3)nc2c1 [Example 578] | + (Up to 200% relative to control)
39 | Oc1ccc2nc(-c3ccc(Cl)cc3)oc2c1 [Example 579] | ++++ (Above 401% relative to control)
40 | Cc1ccc2[nH]c(-c3ccc(NC(=O)c4ccco4)cc3)nc2c1 [Example 580] | +++ (Between 301% and 400% relative to control)
41 | O=C(c1ccccc1)c1ccc2nc(-c3ccccc3)[nH]c2c1 [Example 581] | + (Up to 200% relative to control)
42 | COc1ccc(-c2nc3ccccc3s2)cc1 [Example 582] | ++++ (Above 401% relative to control)
43 | COc1ccc(-c2nc3ccccc3o2)cc1 [Example 583] | +++ (Between 301% and 400% relative to control)
44 | COc1ccc(-c2nc3ccc([N+](=O)[O-])cc3o2)cc1 [Example 584] | +++ (Between 301% and 400% relative to control)
45 | O=C(Nc1ccc(-c2nc3ccccc3[nH]2)cc1)c1cccs1 [Example 585] | ++++ (Above 401% relative to control)
46 | COc1ccc(-c2nc3cc([N+](=O)[O-])ccc3[nH]2)cc1 [Example 586] | ++ (Between 201% and 300% relative to control)
47 | O=C(Nc1ccc(-c2nc3ccccc3[nH]2)cc1)C1CCCO1 (centres unmarked) [Example 587] | +++ (Between 301% and 400% relative to control)
48 | Cc1ccc(-c2nc3ccccc3n2C)cc1 [Example 588] | +++ (Between 301% and 400% relative to control)
49 | CC(=O)Nc1ccc(-c2nc3ccccc3o2)cc1 [Example 589] | +++ (Between 301% and 400% relative to control)
50 | Cc1cc(C)c2nc(-c3ccc(N)cc3)oc2c1 [Example 590] | ++++ (Above 401% relative to control)
51 | CC(=O)Nc1ccc(-c2nc3ccccc3[nH]2)cc1 [Example 591] | +++ (Between 301% and 400% relative to control)
52 | Nc1cc(-c2nc3ccccc3s2)ccc1Cl [Example 592] | ++++ (Above 401% relative to control)

Row | SMILES | Activity
53 | CC(C)(C)c1ccc2oc(-c3ccc(N)cc3)nc2c1 [Example 593] | +++ (Between 301% and 400% relative to control)
54 | Oc1cccc(-c2nc3ccccc3s2)c1 [Example 594] | ++++ (Above 401% relative to control)
55 | Clc1ccc(-c2nc3ccccc3s2)c(Cl)c1 [Example 595] | ++ (Between 201% and 300% relative to control)
56 | COc1ccc(-c2nc3ccccc3s2)cc1O [Example 596] | ++++ (Above 401% relative to control)
57 | COc1ccc(-c2nc3ccccc3s2)cc1N [Example 597] | +++ (Between 301% and 400% relative to control)
58 | Nc1ccc2nc(-c3cccc(Cl)c3)oc2c1 [Example 598] | +++ (Between 301% and 400% relative to control)
59 | Cc1cc(-c2nc3ccccc3s2)ccc1[N+](=O)[O-] [Example 599] | ++++ (Above 401% relative to control)
60 | COc1cccc(-c2nc3ccccc3[nH]2)c1 [Example 600] | ++ (Between 201% and 300% relative to control)
61 | Nc1ccc(-c2nc3ccccc3s2)cc1 [Example 601] | +++ (Between 301% and 400% relative to control)
62 | Nc1cccc(-c2nc3ccccc3s2)c1 [Example 602] | +++ (Between 301% and 400% relative to control)
63 | Cc1ccc(-c2nc3cc(N)ccc3o2)cc1C [Example 603] | +++ (Between 301% and 400% relative to control)
64 | O=[N+]([O-])c1ccc2nc(-c3ccccc3)[nH]c2c1 [Example 604] | +++ (Between 301% and 400% relative to control)
65 | Cc1ccc2[nH]c(-c3ccc([N+](=O)[O-])cc3)nc2c1 [Example 605] | +++ (Between 301% and 400% relative to control)
66 | COc1cccc(-c2nc3ccccc3s2)c1 [Example 606] | +++ (Between 301% and 400% relative to control)
67 | Cc1cc(-c2nc3ccccc3o2)ccc1[N+](=O)[O-] [Example 607] | ++++ (Above 401% relative to control)
68 | c1ccc2sc(-c3ccc4c(c3)OCO4)nc2c1 [Example 608] | ++++ (Above 401% relative to control)
69 | CCC(C)c1ccc2oc(-c3ccc(N)cc3)nc2c1 (centres unmarked) [Example 609] | +++ (Between 301% and 400% relative to control)
70 | Cc1cc2nc(-c3ccc(N)cc3O)oc2cc1C [Example 610] | ++++ (Above 401% relative to control)
71 | Cc1ccc2nc(-c3ccc(C(F)(F)F)cc3)oc2c1 [Example 611] | +++ (Between 301% and 400% relative to control)
72 | Cc1ccc2oc(-c3cccs3)nc2c1 [Example 612] | ++ (Between 201% and 300% relative to control)
73 | Cc1ccc(-c2nc3ccccc3[nH]2)cc1 [Example 613] | +++ (Between 301% and 400% relative to control)
74 | O=C(COc1ccc2c(c1)OCO2)Nc1nc2ccccc2s1 [Example 614] | + (Up to 200% relative to control)
75 | CCn1c(C)nc2cc(C(=O)Nc3ccccc3)ccc21 [Example 615] | ++++ (Above 401% relative to control)
76 | O=C(Nc1nc2ccccc2s1)c1ccccc1Br [Example 616] | ++++ (Above 401% relative to control)
77 | O=C(CSc1nc2ccccc2s1)N1CCCCC1 [Example 617] | ++++ (Above 401% relative to control)
